Common to all, as to experiment: Inhibitory effect on CYP coenzyme activity, human liver microsomes
Common to all, as to format: in vitro ADME
Background: Microsomes from liver hold many membrane-bound enzymes, among them those of drug oxidation.

The target in one series is T1, CYP3A4 (Homo sapiens, UniProt P08684).
T1 construct: human liver microsomes (0.25 mg/mL); from tissue; host or cells: human liver microsomes
Particulars: 10 μM compound, human liver microsomes 0.25 mg/mL, substrate midazolam, 15 minutes. The protocol:
(§1) The inhibitory effects of the compounds prepared according to Examples 1 to 57 on CYP coenzyme activity were identified. Specifically, human liver microsomes (0.25 mg/mL), a 0.1 M phosphate buffer solution (pH 7.4), a substrate drug cocktail of five types of drug metabolism enzymes (50 μM phenacetin, 10 μM diclofenac, 100 μM S-mephenytoin, 5 μM dextromethorphan, and 2.5 μM midazolam), and the compound at a concentration of 0 μM or 10 μM were mixed and pre-cultured at 37° C. for 5 minutes, and then further cultured at 37° C. for 15 minutes together with an NADPH generation system solution added thereto. Thereafter, the reaction was terminated by adding an acetonitrile solution containing an internal standard material (terfenadine) and centrifuged for 5 minutes (14,000 rpm, 4° C.), and then a supernatant was injected into an LC-MS/MS system for simultaneous analysis of metabolites of the substrate drugs to thereby evaluate the inhibitory effects on drug metabolism.
(§2) Metabolites of each CYP coenzyme indicator drug generated through the reaction were analyzed using the Shimadzu Nexera XR system and TSQ Vantage (Thermo). In an HPLC column, Kinetex C18 (2.1 mm×100 mm, 2.6 μm, particle size; Phenomenex, USA) was used, and mobile phases were (A) distilled water containing 0.1% formic acid and (B) acetonitrile containing 0.1% formic acid, and a gradient program shown in Table 3 was applied thereto.
(§3) The generated metabolites were quantified using a multiple reaction monitoring (MRM) quantification mode, and Xcalibur (version 1.6.1) was used for data analysis. In order to express inhibitory effects of the novel compound prepared according to the examples of the present invention on CYP coenzyme activity, CYP coenzyme activities (%) with respect to the control group not treated with the compound are shown in Table 4 below.

A further series addresses T2, CYP2D6 (Homo sapiens, UniProt P10635).
T2 construct: human liver microsomes (0.25 mg/mL); from tissue; host or cells: human liver microsomes
Conditions: 10 μM compound, human liver microsomes 0.25 mg/mL, substrate dextromethorphan, 15 minutes. The method, then: as §1, §2, §3

For a further series, the target named is T3, CYP1A2 (Homo sapiens, UniProt P05177).
T3 construct: human liver microsomes (0.25 mg/mL); from tissue; host or cells: human liver microsomes
T3 sequence (P05177 1-516): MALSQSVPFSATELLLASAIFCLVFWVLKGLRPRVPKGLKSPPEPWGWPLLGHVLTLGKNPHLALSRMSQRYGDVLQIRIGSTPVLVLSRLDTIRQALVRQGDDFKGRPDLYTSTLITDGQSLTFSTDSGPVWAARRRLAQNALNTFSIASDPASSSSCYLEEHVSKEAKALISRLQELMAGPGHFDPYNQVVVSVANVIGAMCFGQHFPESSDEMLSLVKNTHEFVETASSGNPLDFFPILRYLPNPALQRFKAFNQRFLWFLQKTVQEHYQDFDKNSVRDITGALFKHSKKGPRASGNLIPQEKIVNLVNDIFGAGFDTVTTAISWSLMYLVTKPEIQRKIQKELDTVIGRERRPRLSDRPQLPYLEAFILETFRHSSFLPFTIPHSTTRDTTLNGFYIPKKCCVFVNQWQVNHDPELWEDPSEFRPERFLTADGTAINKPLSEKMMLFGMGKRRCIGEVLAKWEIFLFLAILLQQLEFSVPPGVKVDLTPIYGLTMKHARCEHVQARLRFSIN
Conditions: 10 μM compound, human liver microsomes 0.25 mg/mL, substrate phenacetin, 15 minutes. The method, then: as §1, §2, §3

The next series has as its target T4, CYP2C19 (Homo sapiens, UniProt P33261).
T4 construct: human liver microsomes (0.25 mg/mL); from tissue; host or cells: human liver microsomes
Particulars: 10 μM compound, human liver microsomes 0.25 mg/mL, substrate S-mephenytoin, 15 minutes. The method, then: as §1, §2, §3

Another series deals with T5, CYP2C9 (Homo sapiens, UniProt P11712).
T5 construct: human liver microsomes (0.25 mg/mL); from tissue; host or cells: human liver microsomes
Particulars: 10 μM compound, human liver microsomes 0.25 mg/mL, substrate diclofenac, 15 minutes. The method, then: as §1, §2, §3

Each structure is given as a SMILES string.

T1 sequence (P08684 whole entry): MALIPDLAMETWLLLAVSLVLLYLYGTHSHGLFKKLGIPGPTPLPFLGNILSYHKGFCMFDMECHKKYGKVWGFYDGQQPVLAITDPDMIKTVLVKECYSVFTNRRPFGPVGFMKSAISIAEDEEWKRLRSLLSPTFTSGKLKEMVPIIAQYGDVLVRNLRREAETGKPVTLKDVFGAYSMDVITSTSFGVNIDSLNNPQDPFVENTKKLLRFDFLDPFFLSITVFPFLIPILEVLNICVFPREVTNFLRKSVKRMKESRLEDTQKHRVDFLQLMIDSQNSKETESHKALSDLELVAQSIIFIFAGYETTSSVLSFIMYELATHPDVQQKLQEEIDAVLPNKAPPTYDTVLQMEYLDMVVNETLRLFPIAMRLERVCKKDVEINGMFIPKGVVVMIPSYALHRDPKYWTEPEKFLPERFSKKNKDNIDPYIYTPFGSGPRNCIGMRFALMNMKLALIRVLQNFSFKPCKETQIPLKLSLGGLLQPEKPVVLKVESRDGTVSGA
T2 sequence (P10635 whole entry): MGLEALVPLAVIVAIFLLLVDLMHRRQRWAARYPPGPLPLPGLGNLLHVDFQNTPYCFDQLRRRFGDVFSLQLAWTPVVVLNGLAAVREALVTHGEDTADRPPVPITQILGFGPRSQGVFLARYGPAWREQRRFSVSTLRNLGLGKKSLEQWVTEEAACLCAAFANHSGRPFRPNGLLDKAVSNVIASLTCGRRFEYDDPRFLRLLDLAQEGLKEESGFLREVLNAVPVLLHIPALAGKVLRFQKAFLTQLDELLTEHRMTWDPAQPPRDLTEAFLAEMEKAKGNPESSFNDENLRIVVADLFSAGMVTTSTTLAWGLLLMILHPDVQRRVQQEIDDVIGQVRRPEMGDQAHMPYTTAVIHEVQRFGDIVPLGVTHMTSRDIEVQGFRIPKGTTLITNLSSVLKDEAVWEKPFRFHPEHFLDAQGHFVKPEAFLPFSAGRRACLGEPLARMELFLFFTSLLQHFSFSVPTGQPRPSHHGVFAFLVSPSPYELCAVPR
T4 sequence (P33261 whole entry): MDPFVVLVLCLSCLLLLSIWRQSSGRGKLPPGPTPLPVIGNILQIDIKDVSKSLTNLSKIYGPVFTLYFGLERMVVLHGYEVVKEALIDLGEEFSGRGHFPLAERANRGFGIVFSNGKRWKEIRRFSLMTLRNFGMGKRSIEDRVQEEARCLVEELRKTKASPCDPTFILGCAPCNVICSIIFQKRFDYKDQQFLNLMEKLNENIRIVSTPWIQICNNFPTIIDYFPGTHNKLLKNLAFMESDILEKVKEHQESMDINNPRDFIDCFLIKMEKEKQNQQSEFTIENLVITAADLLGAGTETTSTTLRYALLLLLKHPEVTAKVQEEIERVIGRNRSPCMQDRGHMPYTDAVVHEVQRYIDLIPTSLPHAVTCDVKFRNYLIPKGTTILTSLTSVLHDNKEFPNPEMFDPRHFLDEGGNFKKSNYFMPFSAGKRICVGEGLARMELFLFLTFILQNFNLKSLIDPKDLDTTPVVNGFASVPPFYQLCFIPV
T5 sequence (P11712 whole entry): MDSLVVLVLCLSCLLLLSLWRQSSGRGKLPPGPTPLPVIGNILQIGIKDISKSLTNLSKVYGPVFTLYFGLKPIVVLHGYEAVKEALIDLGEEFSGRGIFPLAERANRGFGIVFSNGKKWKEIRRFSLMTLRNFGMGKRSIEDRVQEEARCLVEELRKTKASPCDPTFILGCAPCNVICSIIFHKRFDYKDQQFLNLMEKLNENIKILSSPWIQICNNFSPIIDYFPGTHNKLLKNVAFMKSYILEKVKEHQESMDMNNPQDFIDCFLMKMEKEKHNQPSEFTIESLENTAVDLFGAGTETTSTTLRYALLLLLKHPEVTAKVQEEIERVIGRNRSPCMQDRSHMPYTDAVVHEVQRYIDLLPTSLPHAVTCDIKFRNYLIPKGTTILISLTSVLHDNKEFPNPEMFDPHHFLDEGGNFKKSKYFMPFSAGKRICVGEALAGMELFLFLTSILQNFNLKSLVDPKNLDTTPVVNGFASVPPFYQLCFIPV

Take `Cn1ccc2ccc(NN=C(C#N)C#N)cc2c1=O` [Compound 2, (2-methyl-1-oxo-1,2-dihydroisoquinolin-7-yl)carbonohydrazonoyl dicyanide]: the “CYP3A4 coenzyme activity (%) with respect to control group not treated” value on CYP3A4 is listed as 89%. Further, at CYP2D6, the “CYP2D6 coenzyme activity (%) with respect to control group not treated” value is 94.3%. Besides, the “CYP1A2 coenzyme activity (%) with respect to control group not treated” value on CYP1A2 worked out at 43.5%. In addition, the “CYP2C19 coenzyme activity (%) with respect to control group not treated” value on CYP2C19 came to 79.2%. In addition, on CYP2C9, the “CYP2C9 coenzyme activity (%) with respect to control group not treated” value stood at 77.9%.

On to `CC(C)n1ccc2ccc(NN=C(C#N)C#N)cc2c1=O` [Compound 3, (2-isopropyl-1-oxo-1,2-dihydroisoquinolin-7-yl)carbonohydrazonoyl dicyanide], for which, on CYP3A4, the “CYP3A4 coenzyme activity (%) with respect to control group not treated” value is on record as over 100%. Moreover, the “CYP2D6 coenzyme activity (%) with respect to control group not treated” value on CYP2D6 is recorded as over 100%. In addition, the “CYP1A2 coenzyme activity (%) with respect to control group not treated” value on CYP1A2 worked out at 50.2%. The “CYP2C19 coenzyme activity (%) with respect to control group not treated” value at CYP2C19 is reported as 98.2%. Moreover, on CYP2C9, the “CYP2C9 coenzyme activity (%) with respect to control group not treated” value was 78.5%.

For `N#CC(C#N)=NNc1cccc2c(=O)[nH]ccc12` [Compound 4, (1-oxo-1,2-dihydroisoquinolin-5-yl)carbonohydrazonoyl dicyanide], at CYP3A4, the “CYP3A4 coenzyme activity (%) with respect to control group not treated” value is on record as 81.6%. In addition, the “CYP2D6 coenzyme activity (%) with respect to control group not treated” value on CYP2D6 is given as 91.1%. The “CYP1A2 coenzyme activity (%) with respect to control group not treated” value on CYP1A2 is 85.3%. The “CYP2C19 coenzyme activity (%) with respect to control group not treated” value on CYP2C19 is 89.7%. Further, the “CYP2C9 coenzyme activity (%) with respect to control group not treated” value on CYP2C9 was determined as 59.3%.

Take `Cn1ccc2c(NN=C(C#N)C#N)cccc2c1=O` [Compound 5, (2-methyl-1-oxo-1,2-dihydroisoquinolin-5-yl)carbonohydrazonoyl dicyanide]: the “CYP3A4 coenzyme activity (%) with respect to control group not treated” value on CYP3A4 turned out to be 88.6%. Besides, the “CYP2D6 coenzyme activity (%) with respect to control group not treated” value on CYP2D6 stood at 93.1%. Also, on CYP1A2, the “CYP1A2 coenzyme activity (%) with respect to control group not treated” value is listed as 70.7%. Also, the “CYP2C19 coenzyme activity (%) with respect to control group not treated” value at CYP2C19 is over 100%. Also, the “CYP2C9 coenzyme activity (%) with respect to control group not treated” value at CYP2C9 came to 29.1%.

Regarding `CC(C)n1ccc2c(NN=C(C#N)C#N)cccc2c1=O` [Compound 6, (2-isopropyl-1-oxo-1,2-dihydroisoquinolin-5-yl)carbonohydrazonoyl dicyanide], the “CYP3A4 coenzyme activity (%) with respect to control group not treated” value at CYP3A4 is 81.4%. Moreover, the “CYP2D6 coenzyme activity (%) with respect to control group not treated” value at CYP2D6 was 85.4%. The “CYP1A2 coenzyme activity (%) with respect to control group not treated” value on CYP1A2 amounted to 68.3%. In addition, on CYP2C19, the “CYP2C19 coenzyme activity (%) with respect to control group not treated” value came out at 37.8%. Besides, the “CYP2C9 coenzyme activity (%) with respect to control group not treated” value at CYP2C9 is on record as 8.7%.

For the molecule `Cc1cc2c(NN=C(C#N)C#N)cccc2c(=O)n1C` [Compound 7, (2,3-dimethyl-1-oxo-1,2-dihydroisoquinolin-5-yl)carbonohydrazonoyl dicyanide], at CYP3A4, the “CYP3A4 coenzyme activity (%) with respect to control group not treated” value is recorded as 72%. The “CYP2D6 coenzyme activity (%) with respect to control group not treated” value on CYP2D6 is 86.2%. Moreover, the “CYP1A2 coenzyme activity (%) with respect to control group not treated” value at CYP1A2 is reported as 33.2%. In addition, on CYP2C19, the “CYP2C19 coenzyme activity (%) with respect to control group not treated” value is reported as 65.1%. Further, the “CYP2C9 coenzyme activity (%) with respect to control group not treated” value at CYP2C9 is recorded as 29.8%.

For the molecule `Cn1c(=O)n(C)c2cc(NN=C(C#N)C#N)c(Cl)cc21` [Compound 10, (6-chloro-1,3-dimethyl-2-oxo-2,3-dihydro-1H-benzo[d]imidazol-5-yl)carbonohydrazonoyl dicyanide], the “CYP3A4 coenzyme activity (%) with respect to control group not treated” value on CYP3A4 is listed as over 100%. For the same molecule, the “CYP2D6 coenzyme activity (%) with respect to control group not treated” value on CYP2D6 was over 100%. Also, on CYP1A2, the “CYP1A2 coenzyme activity (%) with respect to control group not treated” value worked out at 94.2%. On CYP2C19, the “CYP2C19 coenzyme activity (%) with respect to control group not treated” value was found to be 94.6%. Also, the “CYP2C9 coenzyme activity (%) with respect to control group not treated” value at CYP2C9 is on record as over 100%.

On to `Cn1c(=O)n(C)c2c(Cl)cc(NN=C(C#N)C#N)cc21` [Compound 11, (7-chloro-1,3-dimethyl-2-oxo-2,3-dihydro-1H-benzo[d]imidazol-5-yl)carbonohydrazonoyl dicyanide], for which the “CYP3A4 coenzyme activity (%) with respect to control group not treated” value on CYP3A4 is listed as over 100%. The “CYP2D6 coenzyme activity (%) with respect to control group not treated” value at CYP2D6 is listed as over 100%. In addition, at CYP1A2, the “CYP1A2 coenzyme activity (%) with respect to control group not treated” value was found to be 73.7%. In addition, on CYP2C19, the “CYP2C19 coenzyme activity (%) with respect to control group not treated” value was 88.4%. Besides, at CYP2C9, the “CYP2C9 coenzyme activity (%) with respect to control group not treated” value was determined as 45.8%.

As for `Cn1c(=O)n(C)c2ncc(NN=C(C#N)C#N)cc21` [Compound 12, (1,3-dimethyl-2-oxo-2,3-dihydro-1H-imidazo[4,5-b]pyridin-6-yl)carbonohydrazonoyl dicyanide], the “CYP3A4 coenzyme activity (%) with respect to control group not treated” value at CYP3A4 is recorded as over 100%. The “CYP2D6 coenzyme activity (%) with respect to control group not treated” value on CYP2D6 is over 100%. Moreover, the “CYP1A2 coenzyme activity (%) with respect to control group not treated” value on CYP1A2 is given as 99.6%. On CYP2C19, the “CYP2C19 coenzyme activity (%) with respect to control group not treated” value worked out at 92.2%. Also, on CYP2C9, the “CYP2C9 coenzyme activity (%) with respect to control group not treated” value came out at 93.4%.

On to `N#CC(C#N)=NNc1ccc2[nH]c(=O)sc2c1` [Compound 13, (2-oxo-2,3-dihydrobenzo[d]thiazol-6-yl)carbonohydrazonoyl dicyanide], for which the “CYP3A4 coenzyme activity (%) with respect to control group not treated” value on CYP3A4 was found to be 92.7%. For the same molecule, the “CYP2D6 coenzyme activity (%) with respect to control group not treated” value on CYP2D6 is listed as 99.4%. Besides, the “CYP1A2 coenzyme activity (%) with respect to control group not treated” value on CYP1A2 is on record as 79%. The “CYP2C19 coenzyme activity (%) with respect to control group not treated” value at CYP2C19 is recorded as 55.2%. On CYP2C9, the “CYP2C9 coenzyme activity (%) with respect to control group not treated” value came to 23.3%.

Turning to `Cn1c(=O)sc2cc(NN=C(C#N)C#N)ccc21` [Compound 14, (3-methyl-2-oxo-2,3-dihydrobenzo[d]thiazol-6-yl)carbonohydrazonoyl dicyanide], the “CYP3A4 coenzyme activity (%) with respect to control group not treated” value at CYP3A4 is 91.2%. Further, the “CYP2D6 coenzyme activity (%) with respect to control group not treated” value on CYP2D6 was determined as 85.6%. The “CYP1A2 coenzyme activity (%) with respect to control group not treated” value on CYP1A2 amounted to 81.6%. Further, the “CYP2C19 coenzyme activity (%) with respect to control group not treated” value at CYP2C19 worked out at 68.8%. The “CYP2C9 coenzyme activity (%) with respect to control group not treated” value on CYP2C9 came out at 19.5%.

As to `N#CC(C#N)=NNc1ccc2[nH]c(=O)oc2c1` [Compound 15, (2-oxo-2,3-dihydrobenzo[d]oxazol-6-yl)carbonohydrazonoyl dicyanide], the “CYP3A4 coenzyme activity (%) with respect to control group not treated” value at CYP3A4 was 98.3%. The “CYP2D6 coenzyme activity (%) with respect to control group not treated” value at CYP2D6 is recorded as over 100%. Besides, the “CYP1A2 coenzyme activity (%) with respect to control group not treated” value on CYP1A2 is 87.3%. Moreover, the “CYP2C19 coenzyme activity (%) with respect to control group not treated” value at CYP2C19 came to 90.3%. In addition, the “CYP2C9 coenzyme activity (%) with respect to control group not treated” value at CYP2C9 is 59.4%.

Consider `Cn1c(=O)oc2cc(NN=C(C#N)C#N)ccc21` [Compound 16, (3-methyl-2-oxo-2,3-dihydrobenzo[d]oxazol-6-yl)carbonohydrazonoyl dicyanide], for which, at CYP3A4, the “CYP3A4 coenzyme activity (%) with respect to control group not treated” value is given as 99.8%. Moreover, on CYP2D6, the “CYP2D6 coenzyme activity (%) with respect to control group not treated” value is reported as over 100%. Also, at CYP1A2, the “CYP1A2 coenzyme activity (%) with respect to control group not treated” value came to 91.5%. In addition, the “CYP2C19 coenzyme activity (%) with respect to control group not treated” value at CYP2C19 was found to be 90.8%. Also, at CYP2C9, the “CYP2C9 coenzyme activity (%) with respect to control group not treated” value is reported as 54.9%.

Values taken from patent US12590066B2, “Fused-heterocyclyl-carbonohydrazonoyl dicyanide compounds and use thereof” (KOREA INSTITUTE OF SCIENCE AND TECHNOLOGY, priority 2020, dated 2026).
